This assay relates to reconstructed epidermes SKINETHIC® integrating melanocytes (type IV). Kind of assay: Assay of the melanin on reconstructed epidermes integrating melanocytes. The assay is classed as cell-based, human. How it is done:
The cells are grown for 10 days at the air/liquid interface, the growth medium is being changed daily. The thus formed type IV epidermis (=negroid) were used from the 10th day of culture. […] Marine cells obtained in Examples 1 and 2. The assessment of the synthesis of intracellular melanin (qualitative study) was carried out by spectrometry at 475 nm after that the cells were suspended, then dissolved in NaOH (1N) and dimethyl sulfoxide for 30 minutes.

The values below come from patent publication US7604806B2, “Use of a lyophilisate of dedifferentiated plant cells for skin depigmentation and/or lightening” (Biotechmarine, priority 2003, dated 2009).

The structures appear in SMILES notation.

With `O=c1cc(CO)occ1O` [Positive control, kojic acid], the “Melanin, % vs negative control” value (change of the rate of melanin compared to negative control) is reported as −44%. Further, the “Melanin, Absorbance (475 nm)” value (intracellular melanin, type IV epidermes, duplicate) is 0.09 ± 0.01.
